The results in this text go back to ChEMBL document CHEMBL1201862, “PubChem BioAssay data set” (2004).

Assay [1] deals with HEK293. Kind of assay: NOD2 signaling inhibitors in MDP-stimulated cells, cell-based, uHTS, luminescence (AID 2001). The class given is functional. Particulars: Homo sapiens.
Assay [2] concerns HEK293. Description: cells. The conditions noted are these: Homo sapiens. The class given is functional, cell-based.
Assay [3] in a line: inhibitors of Trypanosoma cruzi host-cell infection, confirmation, beta-gal luminescence, NIH3T3 host cells (AID 2630). In kind it is functional, cell-based. The conditions noted are these: Mus musculus.
Assay [4] has as its target Cystic fibrosis transmembrane conductance regulator/Golgi-associated PDZ and coiled-coil motif-containing protein (Homo sapiens, UniProt P13569+Q9HD26). Kind of assay: CAL PDZ peptide-binding inhibitors, dose response, biochemical, fluorescence polarization, Cerulean-tagged CAL PDZ, cherry-picks (AID 504773).
Assay [5] has as its target T1, Heat shock factor protein 1 (Mus musculus, UniProt P38532).
T1 sequence (P38532 whole entry): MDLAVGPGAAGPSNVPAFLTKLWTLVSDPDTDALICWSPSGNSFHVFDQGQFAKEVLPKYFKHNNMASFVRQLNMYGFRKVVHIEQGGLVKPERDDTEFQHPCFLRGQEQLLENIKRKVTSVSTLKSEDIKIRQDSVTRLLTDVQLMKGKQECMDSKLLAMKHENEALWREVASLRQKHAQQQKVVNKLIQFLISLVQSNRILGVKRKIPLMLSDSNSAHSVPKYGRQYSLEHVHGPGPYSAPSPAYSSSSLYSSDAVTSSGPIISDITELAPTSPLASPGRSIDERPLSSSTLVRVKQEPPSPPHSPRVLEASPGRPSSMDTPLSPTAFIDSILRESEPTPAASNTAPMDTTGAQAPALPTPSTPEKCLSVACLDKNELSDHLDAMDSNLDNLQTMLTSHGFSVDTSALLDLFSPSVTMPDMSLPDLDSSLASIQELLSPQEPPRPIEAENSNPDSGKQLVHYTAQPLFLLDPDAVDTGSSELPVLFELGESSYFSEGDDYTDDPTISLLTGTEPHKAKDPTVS
Kind of assay: HSF1 potentiators in luciferase reporter cells, confirmation, cell-based, NIH3T3, luminescence, dose retest (AID 435004).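 Further: stress induced by proteasome inhibitor MG132 added 30 min after compound; luciferase reporter driven by HSF1 response element in NIH3T3 cells; actives raise luminescence as potentiators of the MG132 stress response.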 The class given is functional. Background: A reporter such as luciferase makes a cellular process visible.

Assay [6] deals with Polyadenylate-binding protein 1 (Homo sapiens, UniProt P11940). Description: PABP1 MLLE–PAM2 interaction inhibitors, dose response, miRNA deadenylation inhibitor project, biochemical, fluorescence polarization, Cy5-PAM2 peptide, secondary (AID 602260). The class given is functional. The conditions noted are these: read-out: IC50_Mean. (Fluorescence polarisation rises when a labelled molecule tumbles more slowly, as on binding a larger partner.)

The target in the next assay is T2, Caspase-3 (Homo sapiens, UniProt P42574).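 Further: Dose-response selectivity test against caspase-3 for candidate inhibitors of sentrin-specific proteases (SENPs).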
T2 sequence (P42574 whole entry): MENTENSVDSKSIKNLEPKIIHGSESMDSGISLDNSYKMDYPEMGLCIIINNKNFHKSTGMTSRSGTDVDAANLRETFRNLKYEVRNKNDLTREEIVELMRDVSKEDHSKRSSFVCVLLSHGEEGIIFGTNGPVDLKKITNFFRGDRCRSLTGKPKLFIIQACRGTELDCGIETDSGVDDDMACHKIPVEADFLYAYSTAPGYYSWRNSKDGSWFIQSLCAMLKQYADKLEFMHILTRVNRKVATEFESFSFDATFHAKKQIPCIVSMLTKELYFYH
In kind it is functional.

The target of assay [7] is DNA (cytosine-5)-methyltransferase 1 (Homo sapiens, UniProt P26358). Description: DNMT1 methyltransferase inhibitors, confirmation, biochemical, fluorescent molecular beacon (AID 602386). In kind it is functional.
In assay [8] the target is T3, Neuropeptide Y receptor type 1 (Homo sapiens, UniProt P25929).
T3 sequence (P25929 whole entry): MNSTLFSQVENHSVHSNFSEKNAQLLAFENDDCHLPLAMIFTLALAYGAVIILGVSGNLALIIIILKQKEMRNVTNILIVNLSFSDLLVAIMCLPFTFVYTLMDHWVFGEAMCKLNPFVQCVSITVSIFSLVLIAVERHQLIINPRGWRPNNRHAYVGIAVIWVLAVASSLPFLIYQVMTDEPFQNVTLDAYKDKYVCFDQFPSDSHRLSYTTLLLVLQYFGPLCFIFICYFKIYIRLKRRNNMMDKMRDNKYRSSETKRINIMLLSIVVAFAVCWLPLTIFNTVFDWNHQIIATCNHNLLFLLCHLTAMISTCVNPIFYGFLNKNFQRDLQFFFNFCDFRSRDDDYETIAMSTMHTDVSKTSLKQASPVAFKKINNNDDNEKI
Kind of assay: Fluorescence-based counterscreen for agonists of NPY-Y2: cell-based high-throughput dose response assay for agonists of NPY-Y1. The class given is functional.

The nature of assay [9]: miR-122 activators in hepatoma reporter cells, dose response, cell-based, Huh7 psiCHECK-miR122, Renilla luciferase, cherry-picked (AID 651956).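 Further: huh7 hepatoma cells stably carrying a psiCHECK-2 miR-122 sensor plasmid; renilla luciferase signal reporting endogenous miR-122 activity after 48 h compound exposure.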 In kind it is functional.
A short description of assay [10]: HEK293T cytotoxicity, dose response, cytotoxicity control for miR-122 modulator project, cell-based, activator set, cherry-pick (AID 720690).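 Further: HEK293T human cells scored for general mammalian cytotoxicity.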 The class given is functional.
In a further assay the target is Beta-galactosidase (Escherichia coli, UniProt Q8VNN2). Description: beta-galactosidase enzyme inhibitors and activators, dose response, artefact control for CCR6 antagonist project, biochemical, E. coli enzyme, set 3 (AID 504712). In kind it is functional.
Assay [11] can be described thus: Fluorescence-based cell-based high throughput dose response assay for inhibitors of the interaction of nucleotide-binding oligomerization domain containing 2 (NOD2) and the receptor-interacting serine-threonine kinase 2 (RIPK2). The class given is functional, Homo sapiens. Particulars: Homo sapiens.
For assay [12], the target named is T4, Rac GTPase-activating protein 1 (Homo sapiens, UniProt Q9H0H5).
T4 sequence (Q9H0H5 whole entry): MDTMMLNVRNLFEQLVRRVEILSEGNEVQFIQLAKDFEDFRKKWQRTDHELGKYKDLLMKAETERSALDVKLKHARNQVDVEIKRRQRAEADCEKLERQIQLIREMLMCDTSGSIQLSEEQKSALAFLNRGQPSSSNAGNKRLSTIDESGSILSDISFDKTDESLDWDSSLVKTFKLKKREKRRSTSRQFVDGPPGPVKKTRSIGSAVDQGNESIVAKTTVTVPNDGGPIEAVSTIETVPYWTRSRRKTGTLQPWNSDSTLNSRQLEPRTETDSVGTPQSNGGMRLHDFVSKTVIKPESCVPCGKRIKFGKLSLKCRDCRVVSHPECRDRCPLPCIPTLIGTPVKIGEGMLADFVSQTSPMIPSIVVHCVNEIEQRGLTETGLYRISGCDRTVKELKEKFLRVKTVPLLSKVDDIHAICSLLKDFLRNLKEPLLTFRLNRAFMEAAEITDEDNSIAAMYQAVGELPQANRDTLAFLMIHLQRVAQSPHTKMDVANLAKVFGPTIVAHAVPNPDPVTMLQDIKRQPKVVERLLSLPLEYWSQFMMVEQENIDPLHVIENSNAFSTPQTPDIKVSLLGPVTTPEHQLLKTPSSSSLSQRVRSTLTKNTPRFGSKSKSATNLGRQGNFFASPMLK
Description: MgcRacGAP GTPase-activating activity inhibitors, confirmation, biochemical, ADP Hunter fluorescence, primary and confirmatory (AID 624330). In kind it is functional.

Activity calls are given as the source filed them.

Chain of Polyadenylate-binding protein 1 (P11940 whole entry): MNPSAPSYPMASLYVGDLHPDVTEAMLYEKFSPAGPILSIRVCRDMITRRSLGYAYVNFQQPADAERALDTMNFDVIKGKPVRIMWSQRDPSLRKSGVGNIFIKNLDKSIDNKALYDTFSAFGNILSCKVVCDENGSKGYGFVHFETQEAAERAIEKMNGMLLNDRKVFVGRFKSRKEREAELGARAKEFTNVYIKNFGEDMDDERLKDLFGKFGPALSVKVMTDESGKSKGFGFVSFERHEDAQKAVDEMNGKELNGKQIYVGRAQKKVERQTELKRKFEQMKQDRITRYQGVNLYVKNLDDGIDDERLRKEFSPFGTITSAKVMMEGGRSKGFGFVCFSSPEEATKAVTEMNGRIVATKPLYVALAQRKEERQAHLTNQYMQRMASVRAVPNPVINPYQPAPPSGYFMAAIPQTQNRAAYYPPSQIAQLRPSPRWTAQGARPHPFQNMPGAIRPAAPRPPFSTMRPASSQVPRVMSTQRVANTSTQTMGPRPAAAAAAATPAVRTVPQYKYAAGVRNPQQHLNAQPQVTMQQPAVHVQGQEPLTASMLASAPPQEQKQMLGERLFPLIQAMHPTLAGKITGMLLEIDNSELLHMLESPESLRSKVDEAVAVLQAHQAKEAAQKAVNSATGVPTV
Chain of Beta-galactosidase (Q8VNN2 whole entry, the tested form may be a part): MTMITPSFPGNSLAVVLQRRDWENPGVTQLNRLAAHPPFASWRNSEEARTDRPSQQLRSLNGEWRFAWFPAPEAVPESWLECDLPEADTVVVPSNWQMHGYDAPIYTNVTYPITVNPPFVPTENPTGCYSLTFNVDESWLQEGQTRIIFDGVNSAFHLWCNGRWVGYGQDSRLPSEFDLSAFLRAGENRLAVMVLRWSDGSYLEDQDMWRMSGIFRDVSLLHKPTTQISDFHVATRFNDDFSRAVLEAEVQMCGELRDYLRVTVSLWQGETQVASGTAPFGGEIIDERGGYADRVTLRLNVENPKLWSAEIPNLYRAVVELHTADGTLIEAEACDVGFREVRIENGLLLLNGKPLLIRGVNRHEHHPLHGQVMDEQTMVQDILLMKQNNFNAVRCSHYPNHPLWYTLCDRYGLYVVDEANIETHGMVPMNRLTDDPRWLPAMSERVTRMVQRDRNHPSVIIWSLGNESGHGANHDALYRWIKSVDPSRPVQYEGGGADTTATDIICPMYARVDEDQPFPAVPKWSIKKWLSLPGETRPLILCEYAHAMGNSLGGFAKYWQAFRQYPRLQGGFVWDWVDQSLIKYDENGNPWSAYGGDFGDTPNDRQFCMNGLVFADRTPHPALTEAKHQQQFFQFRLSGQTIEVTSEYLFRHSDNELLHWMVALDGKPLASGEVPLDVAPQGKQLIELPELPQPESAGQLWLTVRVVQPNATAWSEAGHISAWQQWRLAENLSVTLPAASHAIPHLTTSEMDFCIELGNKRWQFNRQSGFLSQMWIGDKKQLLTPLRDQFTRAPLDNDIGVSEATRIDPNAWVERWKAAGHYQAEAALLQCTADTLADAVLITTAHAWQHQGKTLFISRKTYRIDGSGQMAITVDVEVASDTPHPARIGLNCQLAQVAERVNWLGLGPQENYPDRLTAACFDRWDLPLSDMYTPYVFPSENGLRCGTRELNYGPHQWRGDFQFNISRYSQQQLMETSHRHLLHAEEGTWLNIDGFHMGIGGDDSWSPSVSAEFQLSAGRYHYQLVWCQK
Chain of DNA (cytosine-5)-methyltransferase 1 (P26358 whole entry): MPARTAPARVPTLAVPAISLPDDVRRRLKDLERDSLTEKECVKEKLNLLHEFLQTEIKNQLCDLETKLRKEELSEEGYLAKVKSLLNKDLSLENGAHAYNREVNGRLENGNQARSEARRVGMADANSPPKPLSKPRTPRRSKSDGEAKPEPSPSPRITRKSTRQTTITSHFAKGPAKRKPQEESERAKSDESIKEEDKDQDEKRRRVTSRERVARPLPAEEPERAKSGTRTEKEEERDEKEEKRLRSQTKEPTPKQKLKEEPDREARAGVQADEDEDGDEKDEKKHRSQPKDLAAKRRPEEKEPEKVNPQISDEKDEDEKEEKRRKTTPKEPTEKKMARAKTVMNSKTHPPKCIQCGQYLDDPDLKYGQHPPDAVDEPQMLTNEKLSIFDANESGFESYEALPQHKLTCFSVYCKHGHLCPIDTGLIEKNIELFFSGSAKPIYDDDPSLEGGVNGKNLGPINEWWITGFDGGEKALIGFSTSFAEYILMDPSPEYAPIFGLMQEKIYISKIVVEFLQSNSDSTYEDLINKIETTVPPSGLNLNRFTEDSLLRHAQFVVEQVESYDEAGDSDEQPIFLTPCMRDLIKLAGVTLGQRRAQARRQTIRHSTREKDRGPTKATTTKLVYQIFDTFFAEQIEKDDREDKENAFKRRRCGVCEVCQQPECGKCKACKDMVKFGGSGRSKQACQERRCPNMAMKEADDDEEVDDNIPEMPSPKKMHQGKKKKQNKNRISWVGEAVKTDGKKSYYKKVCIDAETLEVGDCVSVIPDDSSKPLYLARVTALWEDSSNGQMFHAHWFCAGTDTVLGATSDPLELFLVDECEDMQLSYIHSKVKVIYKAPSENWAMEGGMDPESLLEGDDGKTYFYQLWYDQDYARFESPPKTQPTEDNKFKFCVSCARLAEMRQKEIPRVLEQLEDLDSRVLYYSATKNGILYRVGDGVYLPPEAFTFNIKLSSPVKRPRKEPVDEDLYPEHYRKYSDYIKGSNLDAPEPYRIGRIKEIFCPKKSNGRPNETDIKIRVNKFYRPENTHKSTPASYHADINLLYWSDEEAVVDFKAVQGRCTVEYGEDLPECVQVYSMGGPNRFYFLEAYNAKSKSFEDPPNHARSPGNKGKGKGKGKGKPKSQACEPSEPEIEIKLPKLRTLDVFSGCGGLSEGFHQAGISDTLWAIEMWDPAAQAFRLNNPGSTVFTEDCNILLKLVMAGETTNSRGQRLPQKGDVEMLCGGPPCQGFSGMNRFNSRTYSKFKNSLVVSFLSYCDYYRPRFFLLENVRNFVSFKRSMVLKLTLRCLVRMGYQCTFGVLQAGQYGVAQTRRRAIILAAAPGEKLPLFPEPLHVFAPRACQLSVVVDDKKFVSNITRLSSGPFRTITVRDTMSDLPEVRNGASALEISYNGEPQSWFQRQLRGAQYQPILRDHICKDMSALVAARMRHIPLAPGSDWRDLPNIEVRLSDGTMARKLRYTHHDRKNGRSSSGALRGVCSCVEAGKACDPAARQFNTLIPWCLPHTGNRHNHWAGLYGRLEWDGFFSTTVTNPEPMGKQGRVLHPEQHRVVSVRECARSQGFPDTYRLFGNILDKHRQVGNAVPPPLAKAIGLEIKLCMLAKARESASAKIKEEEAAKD
Chain of Cystic fibrosis transmembrane conductance regulator/Golgi-associated PDZ and coiled-coil motif-containing protein (P13569 whole entry, other chains not shown): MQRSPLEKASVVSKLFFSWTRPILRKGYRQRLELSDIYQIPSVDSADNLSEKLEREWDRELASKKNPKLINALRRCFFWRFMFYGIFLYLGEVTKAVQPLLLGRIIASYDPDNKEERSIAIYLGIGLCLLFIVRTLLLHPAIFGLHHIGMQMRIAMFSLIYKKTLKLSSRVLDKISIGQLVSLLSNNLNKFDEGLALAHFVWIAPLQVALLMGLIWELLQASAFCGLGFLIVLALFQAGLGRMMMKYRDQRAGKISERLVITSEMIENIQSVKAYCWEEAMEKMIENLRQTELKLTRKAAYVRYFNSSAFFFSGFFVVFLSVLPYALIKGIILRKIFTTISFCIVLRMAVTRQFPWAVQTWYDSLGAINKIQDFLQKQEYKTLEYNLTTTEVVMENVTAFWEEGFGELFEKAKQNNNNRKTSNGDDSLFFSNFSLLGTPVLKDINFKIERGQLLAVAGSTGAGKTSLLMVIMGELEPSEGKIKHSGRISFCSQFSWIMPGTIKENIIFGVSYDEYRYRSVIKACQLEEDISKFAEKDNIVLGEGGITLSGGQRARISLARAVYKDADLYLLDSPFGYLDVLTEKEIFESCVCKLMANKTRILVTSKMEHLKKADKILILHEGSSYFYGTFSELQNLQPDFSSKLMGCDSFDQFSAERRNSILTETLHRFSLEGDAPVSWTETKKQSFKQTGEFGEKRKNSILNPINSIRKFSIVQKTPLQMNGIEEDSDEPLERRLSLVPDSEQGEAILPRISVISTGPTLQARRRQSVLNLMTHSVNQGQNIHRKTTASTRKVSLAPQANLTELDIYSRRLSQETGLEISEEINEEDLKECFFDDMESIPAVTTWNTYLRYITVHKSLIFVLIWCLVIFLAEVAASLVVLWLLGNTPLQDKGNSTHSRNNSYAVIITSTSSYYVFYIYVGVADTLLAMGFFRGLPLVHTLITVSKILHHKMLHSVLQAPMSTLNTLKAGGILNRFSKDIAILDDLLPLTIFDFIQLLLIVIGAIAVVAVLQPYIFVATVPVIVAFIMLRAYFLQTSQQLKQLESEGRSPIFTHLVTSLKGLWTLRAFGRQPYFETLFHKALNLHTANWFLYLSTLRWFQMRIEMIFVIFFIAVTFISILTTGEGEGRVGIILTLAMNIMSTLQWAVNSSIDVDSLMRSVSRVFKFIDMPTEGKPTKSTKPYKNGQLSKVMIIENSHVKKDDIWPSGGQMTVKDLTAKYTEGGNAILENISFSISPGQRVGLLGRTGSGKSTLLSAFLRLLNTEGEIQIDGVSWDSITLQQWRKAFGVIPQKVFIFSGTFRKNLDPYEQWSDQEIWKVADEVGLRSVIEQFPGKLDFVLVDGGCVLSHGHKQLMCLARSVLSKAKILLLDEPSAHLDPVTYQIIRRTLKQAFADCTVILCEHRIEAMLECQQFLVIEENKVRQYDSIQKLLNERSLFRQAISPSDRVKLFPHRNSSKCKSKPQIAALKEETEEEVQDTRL

As to `O=C(CNc1cccc2ccccc12)N/N=C/c1ccc([N+](=O)[O-])o1`, the results for the IC50 in the assay on HEK293 [1] and in the assay with HEK293 [2] were 11.5 µM (inactive) and > 20 µM (inactive), respectively. Further, the EC50 in assay [3] is 0.022 µM (active).

`O=C(O)CSc1cc(NS(=O)(=O)c2ccc(Br)cc2)c2ccccc2c1O`: the AC50 in assay [4] was 28.4 µM (active). Moreover, the EC50 in assay [5] is > 260 µM (inactive). Moreover, in assay [6], the IC50 was > 66 µM (inactive).

Take `O=C1NC(=S)N/C1=C/c1cc2c(cc1[N+](=O)[O-])OCO2`: the results for the IC50 (at Caspase-3; in assay [7]) were 27.6 µM (active) and 3.85 µM (active), respectively.

On to `O=C(CC(O)(C(F)(F)F)C(F)(F)F)Nc1ccc(Cl)c(Cl)c1`, for which the EC50 in [8] is recorded as 16.5 µM (not active). The AC50 was 5.54 µM (active) in [9] and 2.27 µM (active) in assay [10].

With `Cc1ccc(NC(=O)C2=C(c3ccccc3)S(=O)(=O)CCS2(=O)=O)cc1`, the IC50 on Beta-galactosidase was > 66.6 µM (inactive); in assay [11] it was 2.73 µM (active); in assay [12], 97.4 µM (active).

For orientation: EC50 means the midpoint of the concentration-response curve. One may read the AC50 as the concentration at which the activity in the assay is half-maximal.
